Measurements from patent US20240002351A1, “QUINAZOLIN-4-ONE AND THIENO[2,3-D]PYRIMIDIN-4-ONE INHIBITORS OF ERBB4 (HER4) FOR USE IN THE TREATMENT OF CANCER” (UNIVERSITEIT ANTWERPEN, priority 2021, published 2024).

Columns and labels:
[1] = system: Human atrial cardiac fibroblasts (HCF); experiment: In vitro fibrosis assay, TGFβ-stimulated HCF (qRT-PCR); format: cell-based; settings: TGFβ 10 ng/mL, 24 hours (FIG. 9)
Experimental: (§1) Human dermal fibroblasts (HDF, Cell applications, 106-05A) were cultured in Dulbecco's modified Eagle's medium (DMEM, ThermoFisher Scientific, 11995065) supplemented with 10% (v/v) heat-inactivated fetal bovine serum (FBS, ThermoFisher Scientific, 10082147), 1% penicillin/streptomycin and 1 mL polymyxin B and were maintained at 37° C. in humidified atmosphere of 5% CO2 in air. Human atrial cardiac fibroblasts (HCF, Innoprot, P10454) were cultured in fibroblast medium (Innoprot, P60108) supplemented with fetal bovine serum, fibroblast growth supplement and penicillin/streptomycin and were maintained at 37° C. in humidified atmosphere of 5% CO2 in air.
Following 1-9 passages, HDF and HCF were seeded at 0.3×10^6 cells/well in 1 mL cell medium in 12-well plates and incubated overnight at 37° C. in humidified atmosphere of 5% CO2 in air. Next, cells were put on serum starved medium (0.1% FBS) for 8 hours and then stimulated for 24 hours with either PBS, active compound (4-32 μM) or non-active compound (NA1, NA2; 4-32 μM) on top of TGFβ (10 ng/mL, Peprotech, 100-21). […] Next, cells were lysed using 100 μL lysis buffer RA1 (of RNA isolation kit below) supplemented with β-mercapto-ethanol (100:1), scraped with a cell scraper and transferred to centrifuge tubes to be stored at −20° C. for a maximum of 2 weeks before RNA isolation.
RNA was extracted using Nucleospin RNA XS (Machery Nagel) according to the manufacturer's instructions. For cDNA synthesis, total RNA was added to a solution containing buffer with random hexamers and reverse transcriptase enzyme. The PCR was performed using the following parameters: 10 minutes at 25° C., 30 minutes at 48° C., 5 minutes at 95° C. RT-qPCR on the cDNA samples was performed using Taqman Universal PCR Master Mix (Applied Biosystems) and Taqman primers according to the manufacturer's instructions. […] Expression levels were calculated using the comparative cycle method and expressed as fold change to appropriate (background) control. […]

C57BL/6N mice = experiment: In vivo acute toxicity study; settings: accumulative i.p. doses, hematoxylin and eosin staining (FIG. 15)
Experimental: An acute toxicity study was performed on C57BL/6N mice using accumulative doses of compound 1 (n=3) or vehicle (n=3, 10% DMSO). On day 1, mice received 0.4 mg/kg cpd 1, day 2 1.2 mg/kg, day 3 4 mg/kg, day 4 4 mg/kg by intraperitoneal injection. At day 4, 1 hour after injection of 4 mg/kg, the mice were sacrificed and the hearts, liver, and kidney excised. The histology of the organs was evaluated by hematoxylin and eosin staining.

C57BL/6N male mice = experiment: In vivo anti-fibrotic capacity, Angiotensin II left ventricular remodeling mouse model
Experimental: Left ventricular (LV) remodeling was induced in 13-week old C57BL/6N male mice by Angiotensin II (AngII, 1000 ng/kg/min, Sigma Aldrich) using a subcutaneous micro-osmotic pump (model 1004, Alzet). Next to AngII, the mice were also given a second s.c. micro-osmotic pump filled with selected hit compound (83 μg/kg/h) or vehicle. Control groups (sham, compound alone, AngII alone) were also implemented. After 4 weeks of treatment, mice were euthanized and hearts were collected.
Hearts were fixed and embedded in paraffin. The LV interstitial collagen fraction was determined in Masson trichrome blue-stained areas. Cardiomyocyte outlines were stained with antibodies specific for laminin (NB300-144; Novus Biologicals), and cardiomyocyte cross-sectional area was determined by averaging 20 representative cardiomyocytes per section per animal (5 sections/animal). Data was skewed, therefore log transformation was performed. Endothelial cells were stained with isolectin B4 (Vector Laboratories) and capillary density was determined as the number of capillaries per 100 cardiomyocytes by averaging the number of capillaries per cardiomyocytes on 5 images per animal. Capillaries and cardiomyocytes were counted (by an investigator blinded to the treatment protocol) per section per animal (5 sections/animal). Capillaries were normalized to tissue area to calculate capillary density.

[2] = system: Human dermal fibroblasts (HDF); experiment: In vitro fibrosis assay, TGFβ-stimulated HDF (qRT-PCR); format: cell-based; settings: TGFβ 10 ng/mL, 4-32 μM (FIGS. 8C-8F)
Experimental: as §1
Following 1-9 passages, HDF and HCF were seeded at 0.3×10^6 cells/well in 1 mL cell medium in 12-well plates and incubated overnight at 37° C. in humidified atmosphere of 5% CO2 in air. Next, cells were put on serum starved medium (0.1% FBS) for 8 hours and then stimulated for 24 hours with either PBS, active compound (4-32 μM) or non-active compound (NA1, NA2; 4-32 μM) on top of TGFβ (10 ng/mL, Peprotech, 100-21). […]
RNA was extracted using Nucleospin RNA XS (Machery Nagel) according to the manufacturer's instructions. […] Expression levels were calculated using the comparative cycle method and expressed as fold change to appropriate (background) control. […]

[3] = Metabolic stability, human liver microsomes; format: in vitro ADME
Experimental: A mixture of 713 μL milliQ water (Millipore, MA, USA), 200 μL 0.5 M phosphate buffer (pH 7.4, BD Diagnostic Systems, MD, USA), 50 μL NADPH regenerating system solution A (BD Biosciences, CA, USA), 10 μL NADPH regenerating system solution B (BD Biosciences, CA, USA) and 2 μL compound (5 mM in DMSO) was prepared and heated for 5 min at 37° C. Twenty-five μL of liver microsomes (0.5 mg protein/mL, Corning B.V. Life Sciences, Amsterdam, Netherlands) was added to the mixture and 20 μL samples were withdrawn at 0, 0.25, 0.5 and 1, 2, 4, 6 and 24 hours. Eighty μL (4×20 μL) of cold acetonitrile (Sigma-Aldrich, MO, USA) was added to the samples on ice for 10 min. Afterwards, the mixtures were centrifuged at 13,000 rpm for 5 min at 4° C. Seventy-five μL of an acetonitrile/water (10/90) mixture was added to 25 μL supernatant and the obtained samples were analyzed by LC-MS/MS (Waters Acquity H-class UPLC system with ion trap mass spectrometer, Bruker Daltonics Esquire 3000 plus, and Agilent 1100 Series LC system) in triplicate.

| Structure (SMILES) | col1a1 levels in comparison with TGFβ control [1] | histology of heart, liver and kidney (treated vs control group) (C57BL/6N mice) | capillary density compared to vehicle (C57BL/6N male mice; 4 weeks (FIG. 14D)) | myocardial fibrosis compared to angiotensin II/vehicle (C57BL/6N male mice; AngII 1000 ng/kg/min + compound 83 μg/kg/h s.c. pump, 4 weeks (FIG. 14A)) | HW:BW ratio (C57BL/6N male mice; add-on to angiotensin II, 4 weeks (FIG. 14B)) | cardiomyocyte cross sectional area compared to angiotensin II/vehicle (C57BL/6N male mice; add-on to angiotensin II, 4 weeks (FIG. 14C)) | antifibrotic effect (col1a1 and col3a1 levels) [2] | t1/2 human ([3]; human liver microsomes) | half-life at 10 µM ([3]; human, liver microsomes, pH 7.4, human liver microsomes, read-out: t1/2 human) | col3a1 levels in comparison with TGFβ control [1] |
| --- | --- | --- | --- | --- | --- | --- | --- | --- | --- | --- |
| O=C(NC1CC1)C(Sc1nc2ccccc2c(=O)n1C1CCCC1)c1ccccc1 (centres unmarked) [Compound 1] | significantly decrease col1a1 levels | no significant difference in structures of cardiac, liver and renal cells | significantly increased capillary density | significantly attenuated myocardial fibrosis | no effect | did increase |  |  |  |  |
| Cc1sc2nc(SC(C)C(=O)Nc3sccc3C(N)=O)n(CC(C)C)c(=O)c2c1C (centres unmarked) [Compound 6] |  |  |  |  |  |  | significant dose-dependent antifibrotic effects | 17 min | 17 to 18 min |  |
| CC(Sc1nc2ccccc2c(=O)n1C1CCCC1)c1nc2ccccc2n1C(F)F (centres unmarked) [Compound 7] |  |  |  |  |  |  | significant dose-dependent antifibrotic effects |  |  | significantly decreases col3a1 levels |
